Reference: patent publication US7078389B2, “Chemically modified oligonucleotide for site-directed mutagenesis” (priority 1993, dated 2006)

System: supF gene within the pSP189 SV40 vector
Assay: Sequence analysis and colony hybridization of supF mutants from SV40 vector
Set-up: species or system monkey
Procedure: Colony hybridization. Ampicillin resistant colonies of SY204 carrying shuttle vector plasmids with supF gene mutations, along with appropriate control colonies, were grown on LB/ampicillin plates and transferred onto replica nylon filters for additional growth and in situ lysis to allow colony hybridization by standard methods. The DNA was fixed to the filters by UV crosslinking, and the filters were incubated in 6×SSC, 5×Denhardt's solution, 0.5% SDS, and 5×10^5 cpm/ml of ^32P-labeled oligonucleotides at 42° C. for 18 hours. The filters were washed in 1×SSC and 0.1% SDS for 30 minutes at 25° C. and then in 1×SSC and 0.1% SDS at 42° C. for 2 hours. […] Binding of the oligonucleotide probes was determined by autoradiography.
DNA Sequencing. DNA was prepared for sequencing by isolating DNA from a 3 ml bacterial culture using a Promega Magic Miniprep kit (Promega, Madison, Wis.). DNA sequence data was obtained by direct chain termination sequencing of the plasmid DNA using automated methods.
Sequence analysis of targeted mutations. A set of 20 mutants generated in the supF gene in the SV40 vector by psoralen-AG10 (at the 1000:1 ratio) and UVA light were subjected to DNA sequence analysis.
In the analysis of mutagenesis in SV40 vectors, it is often difficult to determine if identical mutations arose independently or if they were the result of a single mutational event amplified by subsequent vector replication. In order to exclude the possibility that such sibling mutations were isolated in these experiments, use was made of an advantageous feature of the pSP189 system, in which over 100,000 different, random-sequence 8 base pair oligonucleotides were cloned into a region of pSP189 next to the supF gene. The vector DNA is prepared en masse from this library of vector clones containing the different 8 bp sequences. In this way, at the same time that the sequence of the supF gene in a mutant vector is ascertained, the 8 base pair signature sequence in that particular plasmid molecule can also be identified by reading a few extra bases further in the sequence data. This enables comparisons between the 8 bp signature sequences in plasmids bearing the same supF mutation to see if they are siblings from the same mutational event or if they are independent mutations.
Instead of direct sequencing, a technique of differential oligonucleotide hybridizations was used (Sidransky et al., Science 252:706–709 (1991)). In this assay, undertaken in an effort to streamline mutant analysis, ampicillin resistant bacterial colonies containing mutant supF genes were grown on nylon filters to allow nucleic acid hybridizations.

4′-hydroxymethyl-4,5′,8-trimethylpsoralen-^5′AGGAAGGGGG^3′ (DNA NAGGAAGGGGG; 4'-hydroxymethyl-4,5',8-trimethylpsoralen conjugated at 5' end, further chemistry not given here) [pso-AG10]
Share of sequenced mutations with the same base change at the targeted base pair (20 mutants, 1000:1 ratio, UVA, DNA sequencing): 55% | Share of mutants carrying the T:A to A:T mutation at bp 167 (42 mutants, colony hybridization): 52% | Share of all viral genomes with intended base change (T:A to A:T at bp 167) (1000:1 ratio, UVA): over 4% | Number of colonies with hybridization specific to the 167 mutant probe (of 19 colonies assayed, colony hybridization): 9 | Number of sequenced mutations with T:A to A:T transversion at base pair 167 (of 20 mutants, 1000:1 ratio, UVA, DNA sequencing): 11 | Number of point mutations at base pairs adjacent to the targeted base pair (of 20 sequenced mutants): 3 | Number of small deletions including or abutting the targeted base pair (of 20 sequenced mutants): 6 | Number of mutants carrying the T:A to A:T mutation at bp 167 (of 42 mutants, colony hybridization (including 20 sequenced)): 22 | Share of mutations that are the same T:A to A:T transversion, data taken together (sequencing and hybridization together): at least 50%
